A short description of one data set: Physical state. Type of data set: physicochemical.
A short description of data set [1]: Solubility of dibenzoylmethane in solvents (comparative).
Data set [2] in a line: Vapor pressure at 180° C. Type of data set: physicochemical. How it is done: Study of the physico-chemical properties of the β-diketones
Table 1 gives the vapor pressures at 180° C., which is a typical temperature at which PVC is employed.

Data set [3] is described as follows: Solubility in the principal constituents of an "all in one" additive. Type of data set: physicochemical. Further details: key: S: Mixture soluble; S1: Mixture soluble but viscous; S2: Mixture soluble but very viscous; I: Mixture insoluble. The source says: Solubility in the principal constituents of an "all in one" additive
The purpose was to compare the behavior of a mixture based on a composition according to the invention with a mixture based on dibenzoylmethane, in preparing a mixture of stabilizing agents.
The mixtures were weighed in screw-capped bottles.
The bottles were placed in a shaking machine for agitation, for several hours.

The nature of data set [4]: Solubility in dioctyl phthalate, "DOP". The data set is classed as physicochemical.
The nature of data set [5]: Solubility in "one-pack" additive. Type of data set: physicochemical.
Data set [6] can be described thus: Odor during storage / under operating conditions in PVC. The settings on record: during storage of the composition or transformation of the PVC. The source says: In addition, under operating conditions in PVC, the β-diketone compositions according to the present invention can release substantially no odor, in sharp contrast to closely related compounds.
A short description of data set [7]: Acute toxicity LD50 per os in the rat. The settings on record: in vivo, po. The source says:
Generally, toxicity increases or decreases linearly with the number of carbon atoms in the compound. […] Certain β-diketones, which are not a part of the present invention, have a toxicity which is non-negligible but low. […] In sharp contrast, the toxicity of the β-diketone compounds according to the present invention can be so low as to be not measurable.

As for `O=C(CC(=O)c1ccccc1)c1ccccc1` [Dibenzoylmethane, dibenzoylmethane], the Physical state entry in the data set “Physical state” is listed as “Solid”. The Solubility is below 5 g/100 g solution in data set [1] (Decalin, 3° C.); 5-10 g/100 g solution in data set [1] (Decalin, 25° C.); 10-20 g/100 g solution in data set [1] (Dioctyl adipate, DOA, 3° C.); 20-30 g/100 g solution in data set [1] (Dioctyl adipate, DOA, 25° C.); 5-10 g/100 g solution in data set [1] (Dioctyl adipate, DOA, -15° C.); 10-20 g/100 g solution in data set [1] (Dioctyl phthalate, DOP, 25° C.). Besides, the Solubility was 5-10 g/100 g solution in data set [1] (Dioctyl phthalate, DOP, -15° C.); below 10 g/100 g solution in data set [1] (Diphenyl decyl phosphite, "OS 150", 25° C., only 10% and 20% solutions examined); 10-20 g/100 g solution in data set [1] (Epoxidized soy oil, ESO, 3° C., probably high (crystallization was slow)); 10-20 g/100 g solution in data set [1] (Epoxidized soy oil, ESO, 25° C.); below 1 g/100 g solution in data set [1] (Epoxidized soy oil, ESO, -15° C.); 10-20 g/100 g solution in data set [1] (Octyl trimellitate, OTM, 25° C.). The Solubility in data set [1] (Octyl trimellitate, OTM, -15° C.) was 5-10 g/100 g solution; in data set [1] (Phenyl didecyl phosphite, "OS 300", 3° C., only 10% and 20% solutions examined), 10-20 g/100 g solution; in data set [1] (Phenyl didecyl phosphite, "OS 300", 25° C., only 10% and 20% solutions examined) it was 10-20 g/100 g solution; in data set [1] (Phenyl didecyl phosphite, "OS 300", -15° C., only 10% and 20% solutions examined), below 10 g/100 g solution; in data set [1] (Phosphite of butylcarbitol and bisphenol A, 3° C., only 10% and 20% solutions examined), 10-20 g/100 g solution; in data set [1] (Phosphite of butylcarbitol and bisphenol A, 25° C., only 10% and 20% solutions examined), 10-20 g/100 g solution. The Solubility result in data set [1] (Phosphite of butylcarbitol and bisphenol A, -15° C., only 10% and 20% solutions examined) is reported as “about 10 g/100 g solution”; in data set [1] (Tetralin, 3° C.), 10-20 g/100 g solution; in data set [1] (Tetralin, 25° C.) it was 20-30 g/100 g solution; in data set [1] (Tetralin, -15° C.), below 10 g/100 g solution; in data set [1] (Tridecyl phosphite, "OS 330", 25° C., only 10% and 20% solutions examined) it was below 10 g/100 g solution; in data set [1] (Trilauryl phosphite, "OS 360", 25° C., only 10% and 20% solutions examined), below 10 g/100 g solution. For the same compound, the “Vapor pressure at 180° C.” value in data set [2] was 4 mmHg. Besides, the Solubility of mixture entry in data set [3] (Ba 0, Zn 0, Phosphite 1/2, β-diketone 1/2) is on record as “I”; in data set [3] (Ba 0, Zn 0, Phosphite 1/3, β-diketone 2/3), “I”; in data set [3] (Ba 0, Zn 0, Phosphite 2/3, β-diketone 1/3), “I”; in data set [3] (Ba 0, Zn 1/2, Phosphite 0, β-diketone 1/2) it was “I”; in data set [3] (Ba 0, Zn 2/3, Phosphite 0, β-diketone 1/3), “I”; in data set [3] (Ba 1/4, Zn 1/4, Phosphite 1/4, β-diketone 1/4), “I”. For the same compound, the Solubility of mixture result in data set [3] (Ba 1/8, Zn 1/8, Phosphite 3/8, β-diketone 3/8) is on record as “I”; in data set [3] (Ba 1/10, Zn 2/10, Phosphite 5/10, β-diketone 2/10), “I”; in data set [3] (Ba 1/10, Zn 3/10, Phosphite 0, β-diketone 6/10), “I”; in data set [3] (Ba 1/10, Zn 3/10, Phosphite 3/10, β-diketone 3/10), “I”. Further, the “Solubility in dioctyl phthalate, "DOP"” value was “about 10 g/100 g solvent” in data set [4] (3° C.) and 10-20 g/100 g solvent in data set [4] (23° C.). Also, the “Solubility in "one-pack" additive” value in data set [5] (3° C.) is 5-9 g/100 g solvent; in data set [5] (23° C.), “about 9 g/100 g solvent”; in data set [5] (-15° C.), below 5 g/100 g solvent.
Turning to Isononanoylacetophenone, the Physical state entry in “Physical state” is recorded as “Liquid”. Moreover, the “Vapor pressure at 180° C.” value in data set [2] turned out to be 4 mmHg.
For Isodecanoylacetophenone, in that order: “Liquid” and 2 mmHg.
In the case of Isoundecanoylacetophenone, the Physical state result in the data set “Physical state” is given as “Liquid”. Further, the “Vapor pressure at 180° C.” value in data set [2] is recorded as 1.5 mmHg.
Turning to “Isooctanoylbenzoylmethane [Isooctanoylacetophenone]”, in the data set “Physical state”, the Physical state entry is “Liquid”. Moreover, in data set [2], the “Vapor pressure at 180° C.” value was 6 mmHg.
A word on the LD50: it is the dose expected to kill half of the subjects tested. `CC(C)CC(=O)CC(=O)c1ccccc1` [Isovaleroylacetophenone, isovalerylbenzoylmethane]: the Physical state result in the data set “Physical state” is on record as “Liquid”. Also, the “odor when degradation occurs” value in data set [6] is “intolerable odor”. Besides, the “Vapor pressure at 180° C.” value in data set [2] worked out at 28 mmHg. The compound further had an LD50 in data set [7] of 4880 mg/kg.
`CCCCCCCC(=O)CC(=O)c1ccccc1` [Octanoylacetophenone, Octanoylbenzoylmethane]: the Physical state entry in the data set “Physical state” is “Solid”. Besides, the “Vapor pressure at 180° C.” value in data set [2] is 5.6 mmHg. For the same compound, the “Solubility in dioctyl phthalate, "DOP"” value in data set [4] (3° C.) is on record as 50-100 g/100 g solvent; in data set [4] (23° C.), above 100 g/100 g solvent; in data set [4] (-15° C.), 12-25 g/100 g solvent. Moreover, the results for the “Solubility in "one-pack" additive” value in data set [5] (3° C.), in data set [5] (23° C.) and in data set [5] (-15° C.) were above 18 g/100 g solvent, above 18 g/100 g solvent and 9-18 g/100 g solvent, respectively.
Turning to `CCCCCCC(=O)CC(=O)c1ccccc1` [Heptanoylacetophenone, heptanoyl-benzoylmethane], the Physical state entry in the data set “Physical state” is “Liquid”. In addition, in data set [2], the “Vapor pressure at 180° C.” value is reported as 7 mmHg. In addition, the “Solubility in dioctyl phthalate, "DOP"” value in data set [4] (3° C.) is reported as above 100 g/100 g solvent; in data set [4] (23° C.), above 100 g/100 g solvent; in data set [4] (-15° C.), 50-100 g/100 g solvent. Moreover, the “Solubility in "one-pack" additive” value in data set [5] (3° C.), in data set [5] (23° C.) and in data set [5] (-15° C.) was above 18 g/100 g solvent throughout.

(Values after patent publication US5808165A, “β-diketones, processes for making β-diketones and use of β-diketones as stabilizers for PVC” (Rhone-Poulenc Chimie, priority 1992, dated 1998).)
